How the values were obtained:
[1] = Degradation of molecule C under neutral conditions, monitored by 1H NMR; assay type: physicochemical
Method: Kinetics of the degradation of molecule C under neutral conditions (FIG. 2a). Molecule C (363.2 mg, 1.53 mmol) was dissolved in 3.3 mL of CD3OD, from which 0.5 mL (55.1 mg, 232 μmol) was transferred to a NMR tube. After adding an additional 0.5 mL of CD3OD, ^1H NMR spectra were recorded at room temperature every few days. After 33 days, 15% of molecule C degraded to yield N-benzylmethylamine.
This procedure was also followed but the NMR tube was added to a heat bath at 40° C.
For the kinetics in C6D6 at room temperature, a solution of molecule C (33.9 mg, 143 μmol) in 0.7 mL of C6D6 was added to a NMR tube and ^1H NMR spectra were recorded every few days for 30 days.

[2] = Degradation of molecule C with acid in CD3OD, monitored by 1H NMR; assay type: physicochemical
Method: […] Molecule C (103.5 mg, 436 μmol) was dissolved in 0.94 mL of CD3OD and 0.5 mL (55.1 mg, 232 μmol) was transferred to a NMR tube. […] […] This reaction was too rapid to monitor the kinetics.

Solubility in D2O = assay type: physicochemical
pKa = assay type: physicochemical; details: inferred from partial protonation by benzoic acid in CD3OD
[3] = pH=7.5, 37° C.; cited from earlier work

Compound | 1H NMR spectrum of molecule C (stability in aprotic solvent) ([1]; C6D6, after 30 days) | degradation of molecule C ([1]; C6D6, room temperature, 30 days) [%] | degradation of molecule C ([1]; CD3OD, 40° C., 33 days) [%] | degradation of molecule C ([1]; CD3OD, room temperature, 33 days, no acid) [%] | degradation of molecule C ([2]; five equivalents of benzoic acid, 4 min) [%] | degradation of molecule C ([2]; two molar equivalents of p-toluenesulfonic acid, within four minutes) [%] | degradation of molecule C ([2]; two molar equivalents of trifluoroacetic acid, within four minutes) [%] | solubility in D2O (Solubility in D2O) | pKa of the protonated sulfenamide (pKa) | half-life of the decomposition [3]
CCCCCCSNCCc1ccccc1 [Molecule C, N-Benzylmethyl-hexanesulfenamide] | unchanged | < 3 | 27 | 15 | 51 | > 90 | > 90 | not soluble | approximately the same pKa as benzoic acid | –
C=CCS[S+]([O-])CC=C (stereo not shown) [allicin] | – | – | – | – | – | – | – | – | – | approximately 2 days
